Data on two molecules can be found in patent US9084760B2, “Increasing glutathione levels for therapy” (priority 2008, dated 2015).

One test deals with red blood cell GSH. Briefly: Red blood cell GSH concentration and ASR in nondiabetic elderly humans after 2-week supplementation (Example 4). The format is in vivo. Conditions: after 2-week oral supplementation. On the procedure: (§1) Eight nondiabetic elderly humans were studied in the basal state, and after 2-week oral supplementation with either n-acetylcysteine alone, glycine alone, or both supplements, with a 2-week washout period in-between. […] Plasma lipid peroxides were measured as a marker of ongoing damage due to oxidative stress. Eight younger adult subjects were also recruited as controls.

The next test concerns lipid peroxides (ROOH). Briefly: Plasma ROOH and glucose in diabetics after 2-week supplementation (Example 3). The format is in vivo, humans. Conditions: after 2-week dietary supplementation. On the procedure: (§2) Eight diabetics were studied before and after 2-week dietary supplementation with either n-acetylcysteine (NAC), glycine, or both. Subjects received infusions of ^2H2-glycine to measure the concentration, fractional synthetic rates (FSR) and absolute synthetic rates (ASR) of red cell GSH. Plasma ROOH and glucose levels were measured. Eight non-diabetic subjects were studied as controls.

The next test concerns red cell GSH. Put plainly: Red cell GSH concentration, FSR and ASR in diabetics after 2-week supplementation (Example 3). The following applies: after 2-week dietary supplementation, Mean±SE. In kind it is in vivo, humans. On the procedure:
as §2

For another test, the system named is Plasma lipid peroxides. Put plainly: Plasma lipid peroxides in nondiabetic elderly humans after 2-week supplementation (Example 4). The following applies: after 2-week oral supplementation. The format is in vivo. As for the experimental part:
as §1

As for `CC(=O)N[C@@H](CS)C(=O)O` [n-acetylcysteine], in the test on red blood cell GSH, the GSH concentration amounted to 1.37±0.30 mmol/L RBC and the GSH-ASR was 0.92 ± 0.23 mmol/L/day. Moreover, in the test with lipid peroxides (ROOH), the glycemia result is given as “remained unchanged”. The ROOH concentrations in the test with lipid peroxides (ROOH) (plasma) is 5.78±0.78. Besides, in the test with red cell GSH, the “GSH ASR” value was 0.93 ± 0.18 mmol/L/day, the “GSH FSR” value was found to be 61±2 %/d and the GSH concentration worked out at 1.61±0.15 mmol/LRBC. For the same molecule, the “concentrations of lipid peroxides” value with Plasma lipid peroxides worked out at 3.22±1.29 mmol/L ROOH.

For the molecule `NCC(=O)O` [glycine], in the test on red blood cell GSH, the GSH concentration was 1.21±0.27 mmol/L RBC and the GSH-ASR was determined as 0.71 ± 0.05 mmol/L/day. In the test on Plasma lipid peroxides, the “concentrations of lipid peroxides” value worked out at 3.57±1.13 mmol/L ROOH.
